Assay results as given in patent publication US6486161B1, “Use of rifamycin derivative for treating mastitis in a domestic animal” (priority 2000, dated 2002).
Converted amounts (≈) assume the structure as drawn. Like-named read-outs stand apart in the source and are kept apart here.

Legend:
[1] = test system: rifampin-resistant S. aureus 30862; assay: microbe, parasite or virus in culture; type: cell-based, Staphylococcus aureus; conditions: strain 30862
Description: (§1) The antibacterial effect of the rifamycin derivative (1) against rifampin-resistant Staphylococcus aureus bacterial strains was determined. The tested bacterial strains were isolated from a variety of animal diseases as well as laboratory strains.
(§2) All bacteria were maintained on 3 mm glass beads immersed in trypticase soy broth (BBL Microbiology Systems, Cockeysville, Md.) with 10% glycerol and held at −70° C. until revived. Prior to testing, the organisms were subcultured on tryptose blood agar base (Difco, Detroit, Mich.) supplemented with 5% sheep blood for 24 hours at 35° C.
(§3) The compounds were dissolved in 95% ethanol and diluted to 10% ethanol in sterile, distilled water except for the compounds used in the in vivo testing where saline was used to dilute the original ethanol/drug suspension. Further dilutions were conducted in water or saline.
(§4) MICs were determined using the microbroth dilution method. In addition to the test organisms, the following quality control strain also was tested: Staphylococcus aureus ATCC 29213. The results are shown in Table 5, wherein R is the alkyl group R in the rifamycin derivative (1).

[2] = test system: rifampin-resistant S. aureus 12637; assay: microbe, parasite or virus in culture; type: cell-based, Staphylococcus aureus; conditions: strain 12637
Description: as §1, §2, §3, §4

[3] = test system: rifampin-resistant S. aureus 30860; assay: microbe, parasite or virus in culture; type: cell-based, Staphylococcus aureus; conditions: strain 30860
Description: as §1, §2, §3, §4

[4] = test system: rifampin-resistant S. aureus 30871; assay: microbe, parasite or virus in culture; type: cell-based, Staphylococcus aureus; conditions: strain 30871
Description: as §1, §2, §3, §4

[5] = test system: rifampin-resistant S. aureus 30865; assay: microbe, parasite or virus in culture; type: cell-based, Staphylococcus aureus; conditions: strain 30865
Description: as §1, §2, §3, §4

[6] = test system: rifampin-resistant S. aureus 30858; assay: microbe, parasite or virus in culture; type: cell-based, Staphylococcus aureus; conditions: strain 30858
Description: as §1, §2, §3, §4

[7] = test system: rifampin-resistant S. aureus 30859; assay: microbe, parasite or virus in culture; type: cell-based, Staphylococcus aureus; conditions: strain 30859
Description: as §1, §2, §3, §4

[8] = test system: rifampin-resistant S. aureus 30869; assay: microbe, parasite or virus in culture; type: cell-based, Staphylococcus aureus; conditions: strain 30869
Description: as §1, §2, §3, §4

[9] = test system: rifampin-resistant S. aureus 30867; assay: microbe, parasite or virus in culture; type: cell-based, Staphylococcus aureus; conditions: strain 30867
Description: as §1, §2, §3, §4

[10] = test system: rifampin-resistant S. aureus B93-728M; assay: microbe, parasite or virus in culture; type: cell-based, Staphylococcus aureus; conditions: strain B93-728M
Description: as §1, §2, §3, §4

[11] = test system: rifampin-resistant S. aureus 31068; assay: microbe, parasite or virus in culture; type: cell-based, Staphylococcus aureus; conditions: strain 31068
Description: as §1, §2, §3, §4

[12] = test system: rifampin-resistant S. aureus 30863; assay: microbe, parasite or virus in culture; type: cell-based, Staphylococcus aureus; conditions: strain 30863
Description: as §1, §2, §3, §4

[13] = test system: rifampin-resistant S. aureus 30888; assay: microbe, parasite or virus in culture; type: cell-based, Staphylococcus aureus; conditions: strain 30888
Description: as §1, §2, §3, §4

[14] = test system: Staphylococcus aureus 9203; assay: MIC against the strain of the intracellular killing assay; type: cell-based
[15] = test system: S. aureus 30857, a rifampin-resistant isolate; assay: MIC, microbroth dilution, strain 30857; type: cell-based, Staphylococcus aureus; conditions: for MIC: strain 30857
Description: (§5) Four S. aureus strains were used: S. aureus 30857, a rifampin-resistant isolate: S. aureus 6097, a strain used in the mouse mastitis test and originally from a case of gangrenous bovine mastitis; S. aureus B83-1, derived from the Newbould 305 strain; and S. aureus ATCC 29213, the in vitro control stain recommended by NCCLS.
as §2, with “S. aureus strains” for “bacteria”, “strains” for “organisms”
(§6) These compounds were dissolved in 95% ethanol, a solution which was then diluted to 10% ethanol with sterile distilled water. Further dilutions were conducted in water.
(§7) MIC (Minimum Inhibitory Concentration) determinations were performed using the microbroth dilution method. (National Committee for Clinical Laboratory Standards, 1990 Approved Standard […]. Methods for dilution antimicrobial susceptibility tests for bacteria that grow aerobically, 3rd edition. National Committee for Clinical Laboratory Standards, Villanova, Pa.) The results are shown in Table 3, wherein R is the alkyl group R in the rifamycin derivative (1).

S. aureus 6097 = assay: MIC, microbroth dilution, strain 6097; type: cell-based, Staphylococcus aureus
Description: as §5
as §2, with “S. aureus strains” for “bacteria”, “strains” for “organisms”
as §6, §7

S. aureus B83-1 = assay: Mutation frequency for resistance, strain B83-1; type: cell-based, Staphylococcus aureus
Description: (§8) The mutation frequency for development of resistance to the rifamycin derivative (1) as compared to rifampin was determined with selected Staphylococcus aureus strains.
as §5
as §2, with “S. aureus strains” for “bacteria”, “strains” for “organisms”
as §6
(§9) The mutation frequency for development of resistance to the compounds tested was determined by the following method. A single colony of each strain was removed from the surface of a blood agar plate with a cotton swab, suspended in 5 ml of Mueller-Hinton broth (BBL), and streaked on the entire surface of five Mueller-Hinton agar plates. The plates were incubated overnight under aerobic conditions at 35° C., growth was removed from the agar using a sterile cotton swab, and the bacteria were suspended in 10 ml physiological saline. This bacterial suspension was the inoculum for the mutation frequency determinations. Standard plate counts were performed on the inoculum by performing serial dilutions and plating a 0.1 ml aliquot on the surface of ten Mueller-Hinton agar plates at each concentration. The plates were incubated for 18-24 hours at 35° C. under aerobic conditions and colony counts performed. Mean bacterial counts were calculated for the inoculum with each strain.
(§10) A 0.1 ml aliquot of the inoculum was then used to inoculate the entire surface of ten plates each containing 1, 10, and 100 μg/ml of the test antimicrobial agents. The plates were incubated for 18-24 hours at 35° C. under aerobic conditions and colony counts performed. Mean bacterial counts were calculated for each antimicrobial concentration and the mutation frequency calculated by dividing the number of colonies which grew on the drug containing media by the inoculum size.

S. aureus ATCC 29213 = assay: Mutation frequency for resistance, strain ATCC 29213; type: cell-based, Staphylococcus aureus
Description: as §8, §5
as §2, with “S. aureus strains” for “bacteria”, “strains” for “organisms”
as §6, §9, §10

[16] = Staphylococcus aureus, read-out: MIC

`COC1/C=C/OC2(C)Oc3c(C)c(O)c4c(=O)c(c5oc6cc(N7CCN(C)CC7)cc(O)c6nc-5c4c3C2=O)NC(=O)/C(C)=C\C=C\C(C)C(O)C(C)C(O)C(C)C(OC(C)=O)C1C` (stereo not drawn) [R = methyl] was tested, and the MIC [1] was 2.0 µg/mL (≈ 2.22 µM), the MIC [2] was 0.25 µg/mL (≈ 0.278 µM) and the MIC [3] was 4.0 µg/mL (≈ 4.45 µM). It also gave an MIC [4] of 2.0 µg/mL (≈ 2.22 µM), an MIC [5] of 0.06 µg/mL (≈ 0.0667 µM) and an MIC [6] of 2.0 µg/mL (≈ 2.22 µM). It also gave an MIC [7] of 0.25 µg/mL (≈ 0.278 µM), an MIC [8] of 0.25 µg/mL (≈ 0.278 µM) and an MIC [9] of 0.5 µg/mL (≈ 0.556 µM). For the same compound, the MIC [10] was 0.5 µg/mL (≈ 0.556 µM), the MIC [11] was 2.0 µg/mL (≈ 2.22 µM) and the MIC [12] was 0.25 µg/mL (≈ 0.278 µM). The MIC [13] was 0.13 µg/mL (≈ 0.145 µM), the MIC [14] was “≦0.03 μg/ml” and the “effectiveness against rifampin-resistant strains” value ([15]; MIC, in words) was “effective against rifampin-resistant strains”. For the same compound, the MIC [15] was 0.5 µg/mL (≈ 0.556 µM), the MIC (S. aureus 6097) was 0.061 ng/mL (≈ 6.79e-05 µM) and the Mutation frequency (S. aureus B83-1; 1 μg/ml) was 1.5 × 10^−8. For the same compound, the Mutation frequency (S. aureus B83-1; 10 μg/ml) was <1.8 × 10^−9, the Mutation frequency (S. aureus B83-1; 100 μg/ml) was <1.8 × 10^−9 and the Mutation frequency (S. aureus ATCC 29213; 1 μg/ml) was 2.1 × 10^−9. The Mutation frequency (S. aureus ATCC 29213; 10 μg/ml) was <1.1 × 10^−9 and the Mutation frequency (S. aureus ATCC 29213; 100 μg/ml) was <1.1 × 10^−9.
With `CO[C@H]1/C=C/O[C@@]2(C)Oc3c(C)c(O)c4c(O)c(c(/C=N/N5CCN(C)CC5)c(O)c4c3C2=O)NC(=O)/C(C)=C\C=C\[C@H](C)[C@H](O)[C@@H](C)[C@@H](O)[C@@H](C)[C@H](OC(C)=O)[C@@H]1C` [Rifampin, reference compound] the MIC [1, 16] was > 32 µg/mL, the MIC [2, 16] was > 32 µg/mL and the MIC [3, 16] was > 32 µg/mL. For the same compound, the MIC [4, 16] was > 32 µg/mL, the MIC [5, 16] was 32 µg/mL (≈ 38.9 µM) and the MIC [6, 16] was 8 µg/mL (≈ 9.72 µM). For the same compound, the MIC [7, 16] was > 32 µg/mL, the MIC [8, 16] was 4 µg/mL (≈ 4.86 µM) and the MIC [9, 16] was 32 µg/mL (≈ 38.9 µM). The MIC [10, 16] was 2 µg/mL (≈ 2.43 µM), the MIC [11, 16] was 4 µg/mL (≈ 4.86 µM) and the MIC [12, 16] was > 32 µg/mL. The MIC [13, 16] was > 32 µg/mL, the MIC ([14]; read-out: MIC) was ≤ 0.03 µg/mL and the MIC [15, 16] was > 4 µg/mL. The MIC (S. aureus 6097; [16]) was 1.9 ng/mL (≈ 0.00231 µM), the Mutation frequency (S. aureus B83-1; 1 μg/ml) was 3.7 × 10^−8 and the Mutation frequency (S. aureus B83-1; 10 μg/ml) was 4.5 × 10^−8. The Mutation frequency (S. aureus B83-1; 100 μg/ml) was 1.9 × 10^−8, the Mutation frequency (S. aureus ATCC 29213; 1 μg/ml) was 2.6 × 10^−8 and the Mutation frequency (S. aureus ATCC 29213; 10 μg/ml) was 2.5 × 10^−8. The Mutation frequency (S. aureus ATCC 29213; 100 μg/ml) was 1.9 × 10^−8.
